The source of these data is ChEMBL document CHEMBL4043219, “Development of sulfonamides incorporating phenylacrylamido functionalities as carbonic anhydrase isoforms I, II, IX and XII inhibitors” (Bioorg Med Chem, 2017).

The structures appear in SMILES notation.

For the first experiment, the target named is Carbonic anhydrase 9 (Homo sapiens, UniProt Q16790).
Description: Inhibition of human recombinant carbonic anhydrase-9 preincubated for 10 mins by stopped-flow CO2 hydration assay
`COc1ccc(/C=C/C(=O)Nc2ccc(S(N)(=O)=O)cc2)cc1OC` returned a Ki of 9.3 nM.

In turn, `NS(=O)(=O)c1ccc(NC(=O)/C=C/c2ccc(OC(F)(F)F)cc2)cc1` had a Ki of 4.9 nM.

As to `NS(=O)(=O)c1ccc(NC(=O)/C=C/c2ccc(F)c(F)c2)cc1`, the affinity, expressed as Ki, was 151 nM.

The compound `CC(C)Oc1ccc(/C=C/C(=O)Nc2ccc(S(N)(=O)=O)cc2)cc1` displayed a Ki of 20.3 nM.

On to `NS(=O)(=O)c1ccc(NC(=O)/C=C/c2ccc(Cl)cc2)cc1`, for which the Ki is 12.6 nM.

As for `N#Cc1ccc(/C=C/C(=O)Nc2ccc(S(N)(=O)=O)cc2)cc1`, affinity was put at a Ki of 8 nM.

With `NS(=O)(=O)c1ccc(NC(=O)/C=C/c2cccc(C(F)(F)F)c2)cc1`, the affinity corresponds to a Ki of 11.6 nM.

Take `NS(=O)(=O)c1ccc(NC(=O)/C=C/c2cc(Cl)cc(Cl)c2)cc1`: the affinity corresponds to a Ki of 229 nM.

In turn, `NS(=O)(=O)c1ccc(NC(=O)/C=C/c2ccc(C(F)(F)F)cc2)cc1` gave a Ki of 2.4 nM.

With `COc1ccc(/C=C/C(=O)Nc2ccc(S(N)(=O)=O)cc2)c(OC)c1`, the Ki came to 9.6 nM.

The compound `NS(=O)(=O)c1ccc(NC(=O)/C=C/c2ccccc2OC(F)F)cc1` came in with a Ki of 1.8 nM.

With `COc1ccc(/C=C/C(=O)Nc2ccc(S(N)(=O)=O)cc2)cc1`, the Ki was 5.3 nM.

On to `NS(=O)(=O)c1ccc(NC(=O)/C=C/c2ccc(F)cc2)cc1`, for which the affinity, expressed as Ki, was 2.4 nM.

In turn, `NS(=O)(=O)c1ccc(NC(=O)/C=C/c2cccc(F)c2)cc1` displayed a Ki of 2 nM.

Turning to `COc1ccc(/C=C/C(=O)Nc2ccc(S(N)(=O)=O)cc2)c(F)c1`, the Ki was 11.2 nM.

Compound `COc1cc(/C=C/C(=O)Nc2ccc(S(N)(=O)=O)cc2)cc(OC)c1OC` displayed a Ki of 126 nM.

For the next experiment, the target named is Carbonic anhydrase 12 (Homo sapiens, UniProt O43570). As to the kind of experiment: Inhibition of human recombinant carbonic anhydrase-12 preincubated for 10 mins by stopped-flow CO2 hydration assay.
Chain of Carbonic anhydrase 12 (O43570 whole entry): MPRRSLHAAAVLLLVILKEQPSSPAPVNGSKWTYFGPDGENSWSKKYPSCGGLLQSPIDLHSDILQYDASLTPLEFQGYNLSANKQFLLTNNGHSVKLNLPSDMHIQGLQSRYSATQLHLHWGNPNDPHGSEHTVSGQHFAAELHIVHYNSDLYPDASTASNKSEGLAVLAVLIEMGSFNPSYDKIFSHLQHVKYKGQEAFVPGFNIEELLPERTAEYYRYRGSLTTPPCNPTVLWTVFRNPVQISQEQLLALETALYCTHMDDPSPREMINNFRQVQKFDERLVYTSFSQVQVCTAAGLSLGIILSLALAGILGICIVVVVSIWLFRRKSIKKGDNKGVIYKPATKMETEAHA
With `NS(=O)(=O)c1ccc(NC(=O)/C=C/c2ccccc2OC(F)F)cc1`, the Ki worked out at 4.6 nM.
